# Data as given in ChEMBL document CHEMBL6087451, “Design, Synthesis, and Biological Evaluation of 2-Arylaminopyrimidine Derivatives as Dual Cathepsin L and JAK Inhibitors for the Treatment of Acute Lung Injury” (J Med Chem, 2025).
# Calls of active or inactive are those of the source. The rule behind the calls is not given here.
# Key:
# [1] = Anti-inflammatory activity against HBE cells assessed as inhibition of LPS-induced IL-8 level at 5 uM pretreated for 30 mins followed by LPS treatment for 24 hrs by ELISA relative to control; format: functional; conditions: Homo sapiens, time 24.5 hrs
# RAW264.7 [2] = experiment: Anti-inflammatory activity against mouse RAW264.7 cells transfected with CTSL siRNA assessed as inhibition of LPS-induced IL-6 level by Western blot analysis; format: functional, cell-based
# Procathepsin L = Procathepsin L (Homo sapiens, UniProt P07711); experiment: Inhibition of recombinant human Cat L using f Z-Phe-Arg-AMC as substrate preincubated for 30 mins followed by substrate addition
# Procathepsin L, sequence (P07711 whole entry): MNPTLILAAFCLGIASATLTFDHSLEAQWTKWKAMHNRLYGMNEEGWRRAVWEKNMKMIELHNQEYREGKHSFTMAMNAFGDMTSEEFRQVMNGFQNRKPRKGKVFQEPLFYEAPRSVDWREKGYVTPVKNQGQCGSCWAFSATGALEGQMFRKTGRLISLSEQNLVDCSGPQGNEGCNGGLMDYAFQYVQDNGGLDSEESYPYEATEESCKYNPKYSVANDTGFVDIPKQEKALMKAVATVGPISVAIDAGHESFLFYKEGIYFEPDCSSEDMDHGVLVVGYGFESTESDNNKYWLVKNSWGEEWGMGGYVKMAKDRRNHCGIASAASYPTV
# HBE [3] = experiment: Anti-inflammatory activity against HBE cells assessed as inhibition of LPS-induced p-p65 level pretreated for 30 mis followed by LPS treatment for 16 hrs by Western blot analysis; format: functional, cell-based; conditions: Homo sapiens, dose 0.5-5 µM, time 16.5 hrs
# RAW264.7 [4] = experiment: Cytotoxicity against mouse RAW264.7 cells assessed as cell viability at 0.5 to 5 uM; format: toxicity, cell-based; conditions: raw264.7, 5 µM, dose 0.5-5 µM
# RAW264.7 [5] = experiment: Anti-inflammatory activity against mouse RAW264.7 cells assessed as inhibition of LPS-induced IL-1beta level at 50 to 500 nM; format: functional, cell-based; conditions: dose 50-500 nM
# RAW264.7 [6] = experiment: Anti-inflammatory activity against mouse RAW264.7 cells assessed as inhibition of LPS-induced IL-6 mRNA level at 50 to 500 nM by RT-qPCR analysis; format: functional, cell-based; conditions: dose 50-500 nM
# RAW264.7 [7] = experiment: Anti-inflammatory activity against mouse RAW264.7 cells assessed as inhibition of LPS-induced IL-1beta mRNA level at 50 to 500 nM by RT-qPCR analysis; format: functional, cell-based; conditions: dose 50-500 nM
# RAW264.7 [8] = experiment: Anti-inflammatory activity against mouse RAW264.7 cells assessed as inhibition of LPS-induced p38 phosphorylation at 50 to 500 nM by Western blot analysis; format: functional, cell-based; conditions: dose 50-500 nM
# RAW264.7 [9] = experiment: Anti-inflammatory activity against mouse RAW264.7 cells assessed as inhibition of LPS-induced COX-2 level by Western blot analysis; format: functional, cell-based; conditions: dose 50-500 nM
# [10] = molecular target: Receptor-type tyrosine-protein kinase FLT3 (Homo sapiens) (UniProt P36888); experiment: Inhibition of FLT3 (unknown origin) at 1 uM by kinase profiling analysis relative to control
# Receptor-type tyrosine-protein kinase FLT3 (Homo sapiens), sequence (P36888 whole entry): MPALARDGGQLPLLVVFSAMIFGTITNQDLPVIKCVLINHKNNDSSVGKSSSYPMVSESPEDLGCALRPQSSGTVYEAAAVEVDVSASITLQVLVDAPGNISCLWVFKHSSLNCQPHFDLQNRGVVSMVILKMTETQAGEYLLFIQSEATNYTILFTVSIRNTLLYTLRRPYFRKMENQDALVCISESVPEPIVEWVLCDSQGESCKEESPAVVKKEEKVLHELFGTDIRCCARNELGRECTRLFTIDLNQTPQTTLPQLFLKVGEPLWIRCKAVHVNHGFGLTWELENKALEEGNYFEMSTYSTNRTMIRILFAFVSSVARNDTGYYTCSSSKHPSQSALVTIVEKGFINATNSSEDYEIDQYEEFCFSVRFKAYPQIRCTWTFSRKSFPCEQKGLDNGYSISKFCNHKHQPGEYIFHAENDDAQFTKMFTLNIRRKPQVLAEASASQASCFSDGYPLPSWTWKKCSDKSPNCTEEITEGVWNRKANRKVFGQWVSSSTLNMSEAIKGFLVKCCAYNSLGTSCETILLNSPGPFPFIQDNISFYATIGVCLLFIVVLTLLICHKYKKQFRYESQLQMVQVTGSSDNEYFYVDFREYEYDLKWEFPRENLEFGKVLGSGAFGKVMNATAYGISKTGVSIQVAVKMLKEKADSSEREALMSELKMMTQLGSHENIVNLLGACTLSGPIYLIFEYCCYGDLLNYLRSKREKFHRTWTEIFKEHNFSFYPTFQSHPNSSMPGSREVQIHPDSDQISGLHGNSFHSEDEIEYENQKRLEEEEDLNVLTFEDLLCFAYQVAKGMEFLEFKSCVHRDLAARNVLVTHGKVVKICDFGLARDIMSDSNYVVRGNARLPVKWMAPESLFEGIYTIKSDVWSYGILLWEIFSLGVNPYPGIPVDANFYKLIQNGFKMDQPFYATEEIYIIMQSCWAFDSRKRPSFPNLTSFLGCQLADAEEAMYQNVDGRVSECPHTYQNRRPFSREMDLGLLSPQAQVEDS
# [11] = molecular target: Tyrosine-protein kinase JAK2 (Homo sapiens, UniProt O60674); experiment: Inhibition of JAK2 (unknown origin) using TK-biotin as substrate incubated for 30 mins in presence of ATP by HTRF assay
# Tyrosine-protein kinase JAK2, sequence (O60674 whole entry): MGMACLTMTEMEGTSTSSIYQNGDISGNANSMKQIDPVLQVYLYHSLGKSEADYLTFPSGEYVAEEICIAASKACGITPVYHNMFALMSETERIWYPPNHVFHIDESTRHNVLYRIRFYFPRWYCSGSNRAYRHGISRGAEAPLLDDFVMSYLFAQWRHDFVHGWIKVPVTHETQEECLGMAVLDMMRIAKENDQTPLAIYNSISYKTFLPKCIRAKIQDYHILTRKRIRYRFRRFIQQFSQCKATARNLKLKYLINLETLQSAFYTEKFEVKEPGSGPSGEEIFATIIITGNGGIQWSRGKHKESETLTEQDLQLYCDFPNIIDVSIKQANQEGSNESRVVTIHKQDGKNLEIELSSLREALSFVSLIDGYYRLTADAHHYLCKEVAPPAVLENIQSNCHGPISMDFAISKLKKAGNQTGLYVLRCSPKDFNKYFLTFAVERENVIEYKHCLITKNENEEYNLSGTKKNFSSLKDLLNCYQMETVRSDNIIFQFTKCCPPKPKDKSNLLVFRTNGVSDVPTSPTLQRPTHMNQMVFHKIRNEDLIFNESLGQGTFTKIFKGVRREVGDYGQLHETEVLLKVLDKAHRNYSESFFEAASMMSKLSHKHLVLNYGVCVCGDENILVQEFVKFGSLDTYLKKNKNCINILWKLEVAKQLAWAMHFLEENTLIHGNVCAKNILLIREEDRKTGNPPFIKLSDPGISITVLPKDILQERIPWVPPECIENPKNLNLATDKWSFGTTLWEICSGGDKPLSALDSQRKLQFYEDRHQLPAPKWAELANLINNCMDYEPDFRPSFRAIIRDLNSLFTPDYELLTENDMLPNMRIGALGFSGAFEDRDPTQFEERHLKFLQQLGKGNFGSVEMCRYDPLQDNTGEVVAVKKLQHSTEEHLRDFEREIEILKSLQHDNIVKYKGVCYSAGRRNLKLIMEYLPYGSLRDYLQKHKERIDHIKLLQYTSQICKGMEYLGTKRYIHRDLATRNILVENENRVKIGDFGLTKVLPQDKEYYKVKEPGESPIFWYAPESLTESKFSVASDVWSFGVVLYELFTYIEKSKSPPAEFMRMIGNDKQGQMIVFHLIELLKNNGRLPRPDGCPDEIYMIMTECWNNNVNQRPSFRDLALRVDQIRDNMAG
# [12] = molecular target: Non-receptor tyrosine-protein kinase TYK2 (Homo sapiens, UniProt P29597); experiment: Inhibition of TYK2 (unknown origin) using TK-biotin as substrate incubated for 120 mins in presence of ATP by HTRF assay
# Non-receptor tyrosine-protein kinase TYK2, sequence (P29597 whole entry): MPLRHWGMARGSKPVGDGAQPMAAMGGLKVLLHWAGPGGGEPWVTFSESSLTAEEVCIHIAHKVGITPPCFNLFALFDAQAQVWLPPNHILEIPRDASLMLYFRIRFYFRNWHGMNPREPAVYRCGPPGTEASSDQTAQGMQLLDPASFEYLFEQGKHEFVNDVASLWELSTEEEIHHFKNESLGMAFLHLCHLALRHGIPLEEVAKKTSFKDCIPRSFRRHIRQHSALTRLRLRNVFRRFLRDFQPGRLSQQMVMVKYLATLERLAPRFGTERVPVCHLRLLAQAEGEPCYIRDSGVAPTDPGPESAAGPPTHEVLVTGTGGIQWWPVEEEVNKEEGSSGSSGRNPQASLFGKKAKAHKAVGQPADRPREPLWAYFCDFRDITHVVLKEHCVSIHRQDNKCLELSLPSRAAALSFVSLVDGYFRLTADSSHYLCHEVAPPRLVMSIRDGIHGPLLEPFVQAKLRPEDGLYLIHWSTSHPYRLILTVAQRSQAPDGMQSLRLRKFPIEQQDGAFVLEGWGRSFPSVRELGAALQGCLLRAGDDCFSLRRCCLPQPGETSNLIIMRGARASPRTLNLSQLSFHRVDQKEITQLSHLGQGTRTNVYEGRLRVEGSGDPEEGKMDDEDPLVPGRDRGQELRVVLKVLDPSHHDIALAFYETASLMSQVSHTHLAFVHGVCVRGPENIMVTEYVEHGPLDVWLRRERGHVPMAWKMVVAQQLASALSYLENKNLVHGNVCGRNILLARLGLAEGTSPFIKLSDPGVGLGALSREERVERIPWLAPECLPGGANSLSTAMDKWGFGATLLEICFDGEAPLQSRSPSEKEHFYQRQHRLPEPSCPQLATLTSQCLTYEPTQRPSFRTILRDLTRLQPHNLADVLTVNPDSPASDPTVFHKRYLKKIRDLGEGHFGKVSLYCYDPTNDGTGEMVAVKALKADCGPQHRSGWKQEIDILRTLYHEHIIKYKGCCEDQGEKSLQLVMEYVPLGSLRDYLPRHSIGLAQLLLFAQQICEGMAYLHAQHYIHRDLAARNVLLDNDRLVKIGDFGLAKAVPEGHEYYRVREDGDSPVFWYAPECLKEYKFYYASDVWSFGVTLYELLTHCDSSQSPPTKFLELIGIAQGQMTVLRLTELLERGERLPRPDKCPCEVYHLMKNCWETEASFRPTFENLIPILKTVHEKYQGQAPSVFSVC
# Mus musculus [13] = experiment: (§1) Anti-inflammatory activity in C57BL/6 mouse model of LPS-induced acute lung injury assessed as decrease in alveolar hemorrhage in lung at 10 mg/kg, ip treated for 3 days followed by LPS treatment after 1 hr post-compound administration on fourth day measured after 18 hrs post-LPS treatment by H and E staining based analysis; format: functional, organism-based; conditions: time 91.0 hrs
# Mus musculus [14] = experiment: as §1, with “inflammatory cell infiltration” for “alveolar hemorrhage”; format: functional, organism-based; conditions: time 91.0 hrs
# Mus musculus [15] = experiment: as §1, with “disruption of epithelial cell structures” for “alveolar hemorrhage”; format: functional, organism-based; conditions: time 91.0 hrs
# Mus musculus [16] = experiment: (§2) Anti-inflammatory activity in C57BL/6 mouse model of LPS-induced acute lung injury assessed as decrease in wet to dry ratio in lung at 10 mg/kg, ip treated for 3 days followed by LPS treatment after 1 hr post-compound administration on fourth day measured after 18 hrs post-LPS treatment; format: functional, organism-based; conditions: time 91.0 hrs
# Mus musculus [17] = experiment: Anti-inflammatory activity in C57BL/6 mouse model of LPS-induced acute lung injury assessed as decrease in number of total cells in BALF at 10 mg/kg, ip treated for 3 days followed by LPS treatment after 1 hr post-compound administration on fourth day measured after 18 hrs post-LPS treatment; format: functional, organism-based; conditions: time 91.0 hrs
# Mus musculus [18] = experiment: as §2, with “decrease in IL-1beta mRNA level in lung” for “decrease in wet to dry ratio in lung”, “post-LPS treatment by RT-qPCR analysis” for “post-LPS treatment”; format: functional, organism-based; conditions: time 91.0 hrs
# Mus musculus [19] = experiment: In vivo inhibition of mature CTSL in lung of C57BL/6 mouse model of LPS-induced acute lung injury at 10 to 20 mg/kg, ip treated for 3 days followed by LPS treatment after 1 hr post-compound administration on fourth day measured after 18 hrs post-LPS treatment by Western blot analysis; format: functional, organism-based; conditions: dose 10-20 mg/kg, time 91.0 hrs
# [20] = AUC (0 to t) in Sprague-Dawley rat at 3.5 mg/kg, iv measured for 24 hrs by LC-MS/MS analysis; format: ADME, organism-based; conditions: in vivo
# [21] = AUC (0 to infinity) in Sprague-Dawley rat at 3.5 mg/kg, iv measured for 24 hrs by LC-MS/MS analysis; format: ADME, organism-based; conditions: in vivo
# [22] = AUC (0 to t) in Sprague-Dawley rat at 3.5 mg/kg, ip measured for 24 hrs by LC-MS/MS analysis; format: ADME, organism-based; conditions: in vivo
# [23] = AUC (0 to infinity) in Sprague-Dawley rat at 3.5 mg/kg, ip measured for 24 hrs by LC-MS/MS analysis; format: ADME, organism-based; conditions: in vivo
# [24] = Half life in Sprague-Dawley rat at 3.5 mg/kg, ip measured for 24 hrs by LC-MS/MS analysis; format: ADME, organism-based; conditions: in vivo
# [25] = Cmax in Sprague-Dawley rat at 3.5 mg/kg, ip measured for 24 hrs by LC-MS/MS analysis; format: ADME, organism-based; conditions: in vivo
# [26] = AUC (0 to t) in Sprague-Dawley rat at 3.5 mg/kg, po measured for 24 hrs by LC-MS/MS analysis; format: ADME, organism-based; conditions: in vivo
# [27] = AUC (0 to infinity) in Sprague-Dawley rat at 3.5 mg/kg, po measured for 24 hrs by LC-MS/MS analysis; format: ADME, organism-based; conditions: in vivo
# [28] = Half life in Sprague-Dawley rat at 3.5 mg/kg, po measured for 24 hrs by LC-MS/MS analysis; format: ADME, organism-based; conditions: in vivo
# [29] = Oral bioavailability in Sprague-Dawley rat at 3.5 mg/kg measured for 24 hrs by LC-MS/MS analysis; format: ADME, organism-based; conditions: in vivo
# cells [30] = conditions: Homo sapiens, HBE
# cells [31] = conditions: Homo sapiens, HBE; remark: listed apart in the source
# HBE [32] = experiment: Anti-inflammatory activity against HBE cells assessed as inhibition of LPS-induced IL-6 level pretreated for 30 mins followed by LPS treatment for 24 hrs by ELISA; conditions: Homo sapiens, dose <= 5.0 µM, time 24.5 hrs
# HBE [33] = experiment: Anti-inflammatory activity against HBE cells assessed as inhibition of LPS-induced IL-8 level pretreated for 30 mins followed by LPS treatment for 24 hrs by ELISA; conditions: Homo sapiens, dose <= 5.0 µM, time 24.5 hrs
smiles,measurement,setting,value
Cl.Cn1cc(-c2ccnc(Nc3cccc(N)c3)n2)c2ccccc21,inhibition at 5 µM,[1],85%
same,inhibition,RAW264.7 [2],inactive
same,IC50,Procathepsin L,690 nM
same,inhibition,HBE [3],Dose-dependent-effect
same,Activity,RAW264.7 [4],Non-toxic
same,inhibition,RAW264.7 [5],Active
same,inhibition,RAW264.7 [6],Active
same,inhibition,RAW264.7 [7],Active
same,inhibition,RAW264.7 [8],Active; Result Indicates Compound Suppresses Mapk Pathway
same,inhibition,RAW264.7 [9],Dose-dependent-effect
same,inhibition,[10],103%
same,IC50,[11],5.25 nM
same,IC50,[12],173 nM
same,Activity,Mus musculus [13],Active
same,Activity,Mus musculus [14],Active
same,Activity,Mus musculus [15],Active
same,Activity,Mus musculus [16],Active
same,Activity,Mus musculus [17],Active
same,Activity,Mus musculus [18],Active
same,inhibition,Mus musculus [19],Active
same,AUC(0-t) at 24 h,[20],633 ng·h/mL
same,AUC(0-inf),[21],680 ng·h/mL
same,AUC(0-t) at 24 h,[22],407 ng·h/mL
same,AUC(0-inf),[23],416 ng·h/mL
same,half-life,[24],4.73 h
same,Cmax,[25],193 ng/mL
same,AUC(0-t) at 24 h,[26],157 ng·h/mL
same,AUC(0-inf),[27],159 ng·h/mL
same,half-life,[28],3.21 h
same,bioavailability,[29],24.9%
same,IC50,cells [30],614 nM
same,IC50,cells [31],1350 nM
same,inhibition,HBE [32],Dose-dependent-effect
same,inhibition,HBE [33],Dose-dependent-effect
